The values that follow come from patent publication US10428028B2, “HDAC inhibitors” (BIOMARIN PHARMACEUTICAL INC., priority 2013, dated 2019).

Series [1] in a line: Brain penetration studies. The format is in vivo. As to conditions: C57/BL6/J, mouse; mice, s.c. 5 or 50 mg/kg or i.v. 5 mg/kg; Cmax(brain)/Cmax(plasma); read-out: BPR (brain/plasma ratio). As for the experimental part: Test compounds were prepared at either 0.5 mg/ml or 5 mg/ml in 30% hydroxypropyl-β-cyclodextrin, 100 mM sodium acetate pH 5.5, 5% DMSO. C57/BL6/J mice were dosed s.c. at 5 mg/kg or 50 mg/kg, or i.v. at 5 mg/kg. Animals were euthanized at pre-dose, 5, 15, 30 min, 1, 2 and 4 hours post-dose and plasma and brain obtained. Three animals per dose per time points were used. The levels of compound in the plasma and brain were determined by standard LC/MS/MS methods. Brain/plasma ratio (BPR) was calculated as the ratio of the Cmax(brain)/Cmax(plasma). The results are shown in Table 5, where IA corresponds to a BPR less than 0.1, D is between 0.1 and 0.2, C is 0.2 to 0.5, B comprises 0.5 to 1 and A is greater than 1.

Series [2] has as its target HDAC3/NcoR2 (Homo sapiens (Human), UniProt O15379). Put plainly: HDAC enzyme inhibition assay (Fluor-de-Lys), HDAC3/NcoR2. The class given is biochemical. Conditions: HDAC3/NcoR2, 2 hours pre-incubation. As for the experimental part: (§1) The HDAC activity inhibition assay was performed as follows to determine the ability of a test compound to inhibit HDAC enzymatic activity. Serial dilutions of HDAC inhibitors were prepared in HDAC assay buffer (25 mM Tris/HCl, pH 8.0, 137 mM NaCl, 2.7 mM KCl, 1 mM MgCl2, pH 8) in 96-well assay plates (Fisher scientific, #07-200-309) and were pre-incubated for 2 hours at room temperature in the presence of 125 μg/ml BSA and purified HDAC1 (BPS Bioscience, San Diego, Calif., #50051), HDAC2 (BPS Bioscience, #50053), or HDAC3/NcoR2 (BPS Bioscience, #50003) at concentrations of 1.25, 1.32, and 0.167 μg/mL, respectively. Following pre-incubation, Fluor-de-Lys™ substrate (Enzo Life Sciences, Plymouth Meeting, Pa., BML-KI104-0050) was added to a final concentration of 10 μM and plates were further incubated for 30 minutes at room temperature. The enzymatic reaction was stopped by addition of Trichostatin A (Sigma-Aldrich, St Louis, Mo., #T8552, final concentration: 100 nM) and trypsin (MP Biomedicals, Solon, Ohio, #02101179) was added to reach a final concentration of 100 μg/mL. After a 15 minute incubation at room temperature, fluorescence was recorded using a Spectramax M2 fluorometer (Molecular Devices, Sunnyvale, Calif.) with excitation at 365 nm and emission at 460 nm. IC50 values were calculated by using a sigmoidal dose-response (variable slope) equation in GraphPad Prism® 5 for Windows (GraphPad Software, La Jolla, Calif.). Results for selected compounds in the HDAC activity inhibition assay are presented in Table 5 (IC50 ranges: IA>20 μM, A<1 μM, 1<B<5 μM, 5<C<10 μM, 10<D<20 μM, ND: not determined).

Series [3] concerns the target HDAC2 (Homo sapiens (Human), UniProt Q92769). Put plainly: HDAC enzyme inhibition assay (Fluor-de-Lys), HDAC2. The class given is biochemical. As to conditions: 2 hours pre-incubation. As to the method:
as §1

Series [4] addresses HDAC1 (Homo sapiens (Human), UniProt Q13547). Put plainly: HDAC enzyme inhibition assay (Fluor-de-Lys), HDAC1. As to conditions: 2 hours pre-incubation. The format is biochemical. As for the experimental part:
as §1

The nature of series [5]: Acid stability determination. The class given is physicochemical. Conditions: 0.01 M HCl, 50° C., 100 μM. As to the method: A 100 μM solution of test compound was prepared by dilution of a 10 mM DMSO stock solution in a 0.01 M solution of HCl in deionized water. Immediately after mixing, an aliquot (100 μL) was sampled and analyzed by HPLC/UV. The area under the compound peak was determined and used as the time zero reference point. The remainder of the acid sample was incubated at 50° C. and samples were taken after 2, 4, and 24 hours of incubation. On a few occasions, samples were taken at 30 rather than 24 hours. These were analyzed by the same HPLC/UV method and the area of the peak corresponding to the test compound was measured. Percent remaining at a given time point was then calculated as the ratio of the area under the peak after incubation to that at time zero times 100. In those cases where a 30 hour time point was recorded, the percent remaining at 24 hours was obtained by interpolation of the percent remaining versus time curve assuming a unimolecular process, i.e. a monoexponential decay. Percent remaining after 24 hours incubation are presented in Table 5 below, where A corresponds to more than 60%, B is between 40 and 60%, C covers 20 to 40% and D means less than 20%.

Sequence of HDAC2 (Q92769 whole entry): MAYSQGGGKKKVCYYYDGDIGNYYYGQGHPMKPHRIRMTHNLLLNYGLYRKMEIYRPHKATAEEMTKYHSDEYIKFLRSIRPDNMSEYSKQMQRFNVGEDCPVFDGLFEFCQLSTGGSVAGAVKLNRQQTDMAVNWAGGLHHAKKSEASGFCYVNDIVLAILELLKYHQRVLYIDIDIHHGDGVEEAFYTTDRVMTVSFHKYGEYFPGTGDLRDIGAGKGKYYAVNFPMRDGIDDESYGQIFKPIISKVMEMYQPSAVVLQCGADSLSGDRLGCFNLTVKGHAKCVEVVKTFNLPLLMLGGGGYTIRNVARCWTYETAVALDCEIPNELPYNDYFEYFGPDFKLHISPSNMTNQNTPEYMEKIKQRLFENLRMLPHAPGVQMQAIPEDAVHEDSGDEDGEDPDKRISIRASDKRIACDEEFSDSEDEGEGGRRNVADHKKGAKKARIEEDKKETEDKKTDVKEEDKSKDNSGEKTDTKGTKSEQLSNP
Sequence of HDAC3/NcoR2 (O15379 whole entry): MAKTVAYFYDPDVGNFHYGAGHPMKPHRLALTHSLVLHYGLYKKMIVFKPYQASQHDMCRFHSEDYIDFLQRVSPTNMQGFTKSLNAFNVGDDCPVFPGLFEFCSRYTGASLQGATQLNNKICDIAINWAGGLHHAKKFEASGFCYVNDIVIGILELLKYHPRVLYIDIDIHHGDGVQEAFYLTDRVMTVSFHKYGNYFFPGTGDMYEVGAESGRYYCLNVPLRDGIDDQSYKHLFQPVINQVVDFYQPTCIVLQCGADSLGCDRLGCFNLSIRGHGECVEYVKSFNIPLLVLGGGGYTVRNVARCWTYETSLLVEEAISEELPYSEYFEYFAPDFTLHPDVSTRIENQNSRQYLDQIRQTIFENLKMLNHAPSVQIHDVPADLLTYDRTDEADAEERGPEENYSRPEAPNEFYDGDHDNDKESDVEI
Sequence of HDAC3/NcoR2 (Q9Y618 395-489 partner): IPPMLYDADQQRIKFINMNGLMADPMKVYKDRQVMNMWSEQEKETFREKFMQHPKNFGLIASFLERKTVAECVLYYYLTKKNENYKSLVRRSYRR
Sequence of HDAC1 (Q13547 whole entry): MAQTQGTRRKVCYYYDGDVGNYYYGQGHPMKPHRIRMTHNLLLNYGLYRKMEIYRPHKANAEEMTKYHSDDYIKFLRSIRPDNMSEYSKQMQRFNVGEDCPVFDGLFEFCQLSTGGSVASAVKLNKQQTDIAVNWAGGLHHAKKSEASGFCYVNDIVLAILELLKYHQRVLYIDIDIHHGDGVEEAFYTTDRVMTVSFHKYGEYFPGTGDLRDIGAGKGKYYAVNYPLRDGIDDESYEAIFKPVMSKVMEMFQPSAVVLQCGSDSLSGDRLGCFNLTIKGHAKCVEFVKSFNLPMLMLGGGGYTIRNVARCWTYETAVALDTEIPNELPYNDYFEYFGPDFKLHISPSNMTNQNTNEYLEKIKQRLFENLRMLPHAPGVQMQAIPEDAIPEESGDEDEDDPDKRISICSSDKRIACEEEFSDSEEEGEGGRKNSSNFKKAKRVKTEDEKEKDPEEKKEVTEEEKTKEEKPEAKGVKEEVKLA

For the compound `Nc1ccccc1NC(=O)c1ccc2c(cnn2Cc2cccnc2)c1` [Compound A1], in series [1], the Kp is 0.2 to 0.5. The IC50 in series [2], in series [3] and in series [4] was less than 1000 nM in each case.
On to `Nc1ccccc1NC(=O)c1ccc2c(cnn2Cc2ccccc2)c1` [Compound A2], for which the Kp in series [1] is greater than 1. Also, the IC50 in series [2], in series [3] and in series [4] was less than 1000 nM throughout. The “Acid Stability % Left 24 hr” value in series [5] is “B (B is between 40 and 60%)”.
For the compound `Cn1cc(Cn2ncc3cc(C(=O)Nc4ccccc4N)ccc32)cn1` [Compound A3], the Kp in series [1] fell in the range of 0.2 to 0.5. Besides, the IC50 in series [2], in series [3] and in series [4] was less than 1000 nM each time.
Turning to `Nc1ccccc1NC(=O)c1ccc2c(cnn2Cc2cncc(F)c2)c1` [Compound A4, N-(2-aminophenyl)-1-((5-fluoropyridin-3-yl)methyl)-1H-indazole-5-carboxamide], in series [1], the Kp was 0.2 to 0.5. The IC50 in series [2] and in series [4] was less than 1000 nM in each case.
As to `Cc1ccc(Cn2ncc3cc(C(=O)Nc4ccccc4N)ccc32)c(C)n1` [Compound A5], in series [1], the Kp was in the range of 0.2 to 0.5. Further, the IC50 in series [2], in series [3] and in series [4] was less than 1000 nM throughout.
For the compound `Nc1cc(F)ccc1NC(=O)c1ccc2c(cnn2Cc2cccnc2)c1` [Compound A6], the IC50 in series [2], in series [3] and in series [4] was less than 1000 nM in each case. The “Acid Stability % Left 24 hr” value in series [5] is recorded as “A (A corresponds to more than 60%)”.
Consider `Nc1cc(F)ccc1NC(=O)c1ccc2c(cnn2Cc2cncc(F)c2)c1` [Compound A7], for which the Kp in series [1] lay in the range of 0.2 to 0.5. The IC50 in series [2], in series [3] and in series [4] was less than 1000 nM in each case. Also, the “Acid Stability % Left 24 hr” value in series [5] was “B (B is between 40 and 60%)”.
For `Cc1ccc(Cn2ncc3cc(C(=O)Nc4ccc(F)cc4N)ccc32)c(C)n1` [Compound A8], the IC50 in series [2] is less than 1000 nM; in series [3], 1000 to 5000 nM; in series [4], less than 1000 nM. In addition, the “Acid Stability % Left 24 hr” value in series [5] is reported as “A (A corresponds to more than 60%)”.
With `Nc1ccccc1NC(=O)c1ccc2c(cnn2Cc2ccc(F)c(F)c2)c1` [Compound A9], the Kp in series [1] is greater than 1. Further, the IC50 in series [2], in series [3] and in series [4] was less than 1000 nM in each case. Also, the “Acid Stability % Left 24 hr” value in series [5] is “A (A corresponds to more than 60%)”.
Regarding `Nc1cc(F)ccc1NC(=O)c1ccc2c(cnn2CC2CC2)c1` [Compound A12], in series [1], the Kp was 0.5 to 1. Also, the IC50 in series [2] is less than 1000 nM; in series [3], 5000 to 10000 nM; in series [4], 1000 to 5000 nM. Further, the “Acid Stability % Left 24 hr” value in series [5] was “B (B is between 40 and 60%)”.
In the case of `Nc1ccccc1NC(=O)c1ccc2nn(Cc3cccnc3)cc2c1` [Compound A13], in series [1], the Kp is less than 0.1. Besides, the IC50 in series [2], in series [3] and in series [4] was less than 1000 nM each time.
For `Nc1ccccc1NC(=O)c1ccc2nn(Cc3cncc(F)c3)cc2c1` [Compound A14, N-(2-aminophenyl)-2-((5-fluoropyridin-3-yl)methyl)-2H-indazole-5-carboxamide], the Kp in series [1] fell in the range of 0.2 to 0.5. Moreover, the IC50 in series [2] and in series [4] was less than 1000 nM throughout.
`Cc1ccc(Cn2cc3cc(C(=O)Nc4ccccc4N)ccc3n2)c(C)n1` [Compound A15]: the Kp in series [1] was less than 0.1. Moreover, the figures for the half-maximal inhibitory concentration (IC50) in series [2], in series [3] and in series [4] were less than 1000 nM, 1000 to 5000 nM and less than 1000 nM, respectively.

By IC50 is commonly meant the midpoint of a concentration-inhibition curve. Low readings indicate higher potency, high ones lower potency.
